Test results: article PMC3362725, “An open-label, phase 1 study evaluating safety, tolerability, and pharmacokinetics of linifanib (ABT-869) in Japanese patients with solid tumors” (Cancer Chemotherapy and Pharmacology, 2012)

Assay: Safety and tolerability: adverse events per CTCAE v3, dose-limiting toxicity, phase 1 study
Format: in vivo, human (Japanese patients with solid tumors)
Procedure: A standard 3 + 3 design determined the dose level assignment. Patients were assigned to one of four sequential dose cohorts of once-a-day dose regimen of oral linifanib: 0.05, 0.10, 0.20, or 0.25 mg/kg, administered in the morning. […] Dose-limiting toxicity (DLT) was defined as Grade 4 neutropenia lasting >7 days, Grade 4 thrombocytopenia or decreased hemoglobin, Grade 3 or greater thrombocytopenia (if blood transfusion was required), febrile neutropenia, non-hematological toxicity except for manageable nausea, vomiting, anorexia, diarrhea, constipation or electrolyte abnormality, or a toxicity that required suspension of study drug for >7 days.
Patients self-administered linifanib once daily, on a 21-day cycle after fasting, and treatment continued until disease progression or intolerable toxicity. […] The initial oral dose, 2.5–25.0 mg in increments of 2.5 mg, was determined by the patients’ weights. […] The dose was reduced by 5.0 mg for patients ≥86 kg in the 0.10 mg/kg cohort, for patients in the 0.20 mg/kg cohort who were ≥81 kg at the first reduction and 61–80 and ≥96 kg at the 2nd reduction, and for patients in the 0.25 mg/kg cohort who were ≥66 kg at the first reduction and ≥86 kg at the second reduction. Patients were discontinued if they required dose reduction, specified by cohort: Any reduction (0.05 mg/kg cohort); >1 reduction (0.10 mg/kg cohort, and patients ≤31 kg in the 0.20 mg/kg cohort with an initial 5 mg dose); >2 reductions (0.25 mg/kg cohort, and patients ≥32 kg in the 0.20 mg/kg cohort with an initial ≥7.5 mg dose).
Baseline evaluations included physical examination, body weight, vital signs, 12-lead electrocardiogram, ECOG PS assessment, pregnancy test, laboratory tests, and multiple-gated acquisition scan/echocardiogram. Tumor response and/or disease progression was assessed by computerized tomography (CT) scan or magnetic resonance imaging (MRI) per RECIST [20] at screening and on Day (D) 1 of every second cycle prior to the subsequent treatment period, until tumor progression or until final visit. Complete response and partial response (PR) were defined according to RECIST [20]; objective response rate (ORR) was defined as the proportion of patients with best response of PR or CR among the study population. Safety assessments included laboratory test results and adverse events (AEs), which were graded according to CTCAE v3 [18] and coded by medical dictionary of regulatory activities (MedDRA) 1.0.

## Cc1ccc(F)c(NC(=O)Nc2ccc(-c3cccc4[nH]nc(N)c34)cc2)c1 [linifanib, N-(4-(3-amino-1H-indazol-4-yl)phenyl)-N’-(2-fluoro-5-methylphenyl)urea]
0.05 mg/kg dose
  Grade 3 linifanib-related AEs: no Grade 3 linifanib-related AEs
0.05 mg/kg n = 3, G1
  ALT increased, linifanib-related AE, patients: 1
  AST increased, linifanib-related AE, patients: 1
  Anorexia, linifanib-related AE, patients: 1
  Blood ALKP increased, linifanib-related AE, patients: 1
  Blood TG increased, linifanib-related AE, patients: 1
  Blood cholesterol increased, linifanib-related AE, patients: 2
  Blood urine present, linifanib-related AE, patients: 1
  Diarrhea, linifanib-related AE, patients: 1
  Hypertension, linifanib-related AE, patients: 1
  Neutropenia, linifanib-related AE, patients: 2
  Rash, linifanib-related AE, patients: 1
  Weight decreased, linifanib-related AE, patients: 2
0.05 mg/kg n = 3, G2
  Blood ALKP increased, linifanib-related AE, patients: 1
  Hypertension, linifanib-related AE, patients: 2
0.10 mg/kg cohort, one patient
  dose-limiting toxicity observed: Grade 3 ALT increase
0.10 mg/kg dose
  Grade 3 linifanib-related AEs: three
0.10 mg/kg n = 6, G1
  ALT increased, linifanib-related AE, patients: 2
  AST increased, linifanib-related AE, patients: 4
  Anorexia, linifanib-related AE, patients: 2
  Blood ALKP increased, linifanib-related AE, patients: 1
  Blood TG increased, linifanib-related AE, patients: 3
  Blood TSH increased, linifanib-related AE, patients: 3
  Blood cholesterol increased, linifanib-related AE, patients: 3
  Blood urine present, linifanib-related AE, patients: 2
  Diarrhea, linifanib-related AE, patients: 3
  Fatigue, linifanib-related AE, patients: 1
  GGT increased, linifanib-related AE, patients: 3
  Leukopenia, linifanib-related AE, patients: 2
  Neutropenia, linifanib-related AE, patients: 1
  Proteinuria, linifanib-related AE, patients: 1
  Rash, linifanib-related AE, patients: 3
  Thrombocytopenia, linifanib-related AE, patients: 1
  Weight decreased, linifanib-related AE, patients: 2
0.10 mg/kg n = 6, G2
  Blood TG increased, linifanib-related AE, patients: 1
  Fatigue, linifanib-related AE, patients: 1
  GGT increased, linifanib-related AE, patients: 1
  Hypertension, linifanib-related AE, patients: 5
  Leukopenia, linifanib-related AE, patients: 1
  Palmar-plantar erythrodysaesthesia, linifanib-related AE, patients: 3
  Proteinuria, linifanib-related AE, patients: 2
  Thrombocytopenia, linifanib-related AE, patients: 1
  Weight decreased, linifanib-related AE, patients: 1
0.10 mg/kg n = 6, G3
  Neutropenia, linifanib-related AE, patients: 1
  Proteinuria, linifanib-related AE, patients: 1
0.20 mg/kg n = 3, G1
  ALT increased, linifanib-related AE, patients: 2
  AST increased, linifanib-related AE, patients: 2
  Anorexia, linifanib-related AE, patients: 1
  Blood ALKP increased, linifanib-related AE, patients: 1
  Blood TG increased, linifanib-related AE, patients: 3
  Blood TSH increased, linifanib-related AE, patients: 3
  Blood cholesterol increased, linifanib-related AE, patients: 2
  Blood urine present, linifanib-related AE, patients: 2
  Diarrhea, linifanib-related AE, patients: 1
  Fatigue, linifanib-related AE, patients: 1
  GGT increased, linifanib-related AE, patients: 1
  Leukopenia, linifanib-related AE, patients: 2
  Rash, linifanib-related AE, patients: 1
  T-wave abnormality, linifanib-related AE, patients: 1
  Weight decreased, linifanib-related AE, patients: 1
0.20 mg/kg n = 3, G2
  Anorexia, linifanib-related AE, patients: 1
  Blood cholesterol increased, linifanib-related AE, patients: 1
  Fatigue, linifanib-related AE, patients: 1
  Hypertension, linifanib-related AE, patients: 2
